Results on 14 molecules are retold here after patent US20210053957A1, “HERBICIDAL COMPOUNDS” (SYNGENTA PARTICIPATIONS AG, priority 2018, published 2021).

What all share (assay): Post-emergence efficacy, glasshouse spray test
Type in all cases: in vivo

Assay [1] has as its system Amaranthus palmeri (AMAPA). The conditions noted are these: Application Rate 500 g/Ha, evaluated after 13 days; for pest or weed control at 500 g/ha: Amaranthus palmeri, post-emergence, 312 h, read-out: Control of weed species after post-emergence application, AMAPA (100=total damage to plant; 0=no damage to plant). A digest of the protocol:
(§1)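 Visual damage rating (0 = no damage, 100 = total damage) taken 13 days after a post-emergence spray. Plants had grown 14 days in pots under 24/16° C, 14 h light, 65% humidity before treatment.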

Assay [2] deals with Euphorbia heterophylla (EPHHL). The conditions noted are these: Application Rate 500 g/Ha, evaluated after 13 days; for pest or weed control at 500 g/ha: Euphorbia heterophylla, post-emergence, 312 h, read-out: Control of weed species after post-emergence application, EPHHL (100=total damage to plant; 0=no damage to plant). A digest of the protocol:
as §1

In assay [3] the test system is Ipomoea hederacea (IPOHE). The conditions noted are these: Application Rate 500 g/Ha, evaluated after 13 days; for pest or weed control at 500 g/ha: Ipomoea hederacea, post-emergence, 312 h, read-out: Control of weed species after post-emergence application, IPOHE (100=total damage to plant; 0=no damage to plant). The method, boiled down:
as §1

Assay [4] concerns Setaia fabei (SETFA). To be noted: Application Rate 500 g/Ha, evaluated after 13 days; for pest or weed control at 500 g/ha: Setaria faberi, post-emergence, 312 h, read-out: Control of weed species after post-emergence application, SETFA (100=total damage to plant; 0=no damage to plant). The method, boiled down: as §1
Assay [5] deals with Digitaria sanguinalis (DIGSA). The conditions noted are these: Application Rate 500 g/Ha, evaluated after 13 days; for pest or weed control at 500 g/ha: Digitaria sanguinalis, post-emergence, 312 h, read-out: Control of weed species after post-emergence application, DIGSA (100=total damage to plant; 0=no damage to plant). A digest of the protocol:
as §1

The subject of assay [6] is Eleusine indica (ELEIN). To be noted: Application Rate 500 g/Ha, evaluated after 13 days; for pest or weed control at 500 g/ha: Eleusine indica, post-emergence, 312 h, read-out: Control of weed species after post-emergence application, ELEIN (100=total damage to plant; 0=no damage to plant). A digest of the protocol: as §1
For assay [7], the system named is Echinochloa crus-galli (ECHCG). The conditions noted are these: Application Rate 500 g/Ha, evaluated after 13 days; for pest or weed control at 500 g/ha: Echinochloa crus-galli, post-emergence, 312 h, read-out: Control of weed species after post-emergence application, ECHCG (100=total damage to plant; 0=no damage to plant). A digest of the protocol: as §1
The subject of assay [8] is Lolium perenne (LOLPE). To be noted: Application Rate 500 g/Ha, evaluated after 13 days; for pest or weed control at 500 g/ha: Lolium perenne, post-emergence, 312 h, read-out: Control of weed species after post-emergence application, LOLPE (100=total damage to plant; 0=no damage to plant). A digest of the protocol:
as §1

Assay [9] deals with Chenopodium album (CHEAL). To be noted: Application Rate 500 g/Ha, evaluated after 13 days; for pest or weed control at 500 g/ha: Chenopodium album, post-emergence, 312 h, read-out: Control of weed species after post-emergence application, CHEAL (100=total damage to plant; 0=no damage to plant). A digest of the protocol: as §1

Regarding `COC(=O)CC[n+]1ccc(-c2nccs2)cn1` [Compound A112], the pest or weed control at 500 g/ha in assay [1] was determined as 50%; in [2], 50%; in assay [3], 20%; in assay [4] it was 60%; in assay [5], 90%; in assay [6] it was 90%. Moreover, the pest or weed control at 500 g/ha worked out at 50% in assay [7], 30% in assay [8] and 60% in assay [9].
Consider `O=S(=O)([O-])OCC[n+]1ccc(-c2nccs2)cn1` [Compound A113], for which the pest or weed control at 500 g/ha in [1] was 100%; in assay [2] it was 70%; in assay [3] it was 50%; in assay [4], 70%; in assay [5], 70%; in [6] it was 70%. In addition, the pest or weed control at 500 g/ha in assay [7] amounted to 70%; in [8] it was 60%; in assay [9] it was 60%.
For `O=C(O)CCC[n+]1ccc(-c2nccs2)cn1` [Compound A115], the pest or weed control at 500 g/ha in [1] was 100%; in [2], 100%; in assay [3] it was 20%; in assay [4], 100%; in [5], 90%; in assay [6], 100%. In addition, the pest or weed control at 500 g/ha worked out at 90% in assay [7], 60% in assay [8] and 70% in [9].
In the case of `O=S(=O)([O-])CCC[n+]1ccc(-c2nccs2)cn1` [Compound A116], the pest or weed control at 500 g/ha worked out at 100% in assay [1]; 70% in assay [2]; 20% in assay [3]; 60% in assay [4]; 60% in assay [5]; 80% in assay [6]. For the same molecule, the pest or weed control at 500 g/ha turned out to be 60% in assay [7], 80% in assay [8] and 40% in assay [9].
Regarding `Cn1cnc(-c2cc[n+](CCCS(=O)(=O)[O-])nc2)n1` [Compound A117], the pest or weed control at 500 g/ha in assay [1] was determined as 40%; in [2], 70%; in assay [3], 30%; in assay [4], 90%; in [5], 80%; in assay [6], 20%. Also, the pest or weed control at 500 g/ha worked out at 70% in [7], 40% in [8] and 20% in assay [9].
Turning to `Cn1cnc(-c2cc[n+](CCOS(=O)(=O)[O-])nc2)n1` [Compound A118], the pest or weed control at 500 g/ha was 50% in [1]; 70% in assay [2]; 30% in assay [3]; 90% in [4]; 90% in assay [5]; 70% in assay [6]. Further, the pest or weed control at 500 g/ha in [7] stood at 90%; in assay [8], 40%; in [9] it was 30%.
For the molecule `Cn1cnc(-c2cc[n+](CCCC(=O)O)nc2)n1` [Compound A119], the pest or weed control at 500 g/ha is 100% in [1]; 80% in assay [2]; 30% in [3]; 100% in assay [4]; 90% in [5]; 90% in assay [6]. Further, the pest or weed control at 500 g/ha in assay [7] was 80%; in assay [8], 30%; in assay [9], 50%.
Regarding `COC(=O)C[n+]1ccc(-c2nccs2)cn1` [Compound A120], the pest or weed control at 500 g/ha in [1] is 100%; in [2], 70%; in assay [3], 10%; in assay [4] it was 60%; in assay [5], 80%; in [6], 90%. For the same molecule, the figures for the pest or weed control at 500 g/ha in assay [7], in assay [8] and in assay [9] were 70%, 0% and 50%, respectively.
In the case of `COC(=O)CCC[n+]1ccc(-c2ncn(C)n2)cn1` [Compound A121], the pest or weed control at 500 g/ha was determined as 30% in assay [1]; 40% in [2]; 10% in [3]; 40% in [4]; 60% in [5]; 50% in assay [6]. Moreover, the pest or weed control at 500 g/ha came out at 100% in [7], 10% in assay [8] and 10% in assay [9].
In the case of `O=C(O)CC[n+]1ccc(-c2cncs2)cn1` [Compound A122], the pest or weed control at 500 g/ha was 90% in assay [1]; 70% in [2]; 30% in assay [3]; 50% in assay [4]; 90% in assay [5]; 70% in assay [6]. The figures for the pest or weed control at 500 g/ha in assay [7], in [8] and in assay [9] were 30%, 20% and 0%, respectively.
For `O=C(O)C[n+]1ccc(-c2nccs2)cn1` [Compound A123], the pest or weed control at 500 g/ha in [1] was 0%; in assay [2], 30%; in assay [3] it was 10%; in [4], 10%; in [5], 20%; in [6] it was 20%. The pest or weed control at 500 g/ha stood at 10% in assay [7], 10% in assay [8] and 0% in assay [9].
Consider `CCOC(=O)c1coc(-c2cc[n+](CCS(=O)(=O)O)nc2)n1` [Compound A124], for which the “Control of weed species after post-emergence application, AMAPA (100=total damage to plant; 0=no damage to plant)” value in [1] was determined as 90. The “Control of weed species after post-emergence application, EPHHL (100=total damage to plant; 0=no damage to plant)” value in assay [2] came out at 90. Moreover, the “Control of weed species after post-emergence application, IPOHE (100=total damage to plant; 0=no damage to plant)” value in assay [3] is listed as 40. For the same molecule, the “Control of weed species after post-emergence application, SETFA (100=total damage to plant; 0=no damage to plant)” value in [4] was found to be 70. The “Control of weed species after post-emergence application, DIGSA (100=total damage to plant; 0=no damage to plant)” value in [5] worked out at 90. Moreover, in assay [6], the “Control of weed species after post-emergence application, ELEIN (100=total damage to plant; 0=no damage to plant)” value was 80. The “Control of weed species after post-emergence application, ECHCG (100=total damage to plant; 0=no damage to plant)” value in assay [7] came to 40. Moreover, in assay [8], the “Control of weed species after post-emergence application, LOLPE (100=total damage to plant; 0=no damage to plant)” value was 40. Besides, the “Control of weed species after post-emergence application, CHEAL (100=total damage to plant; 0=no damage to plant)” value in [9] turned out to be 30.
For `CNC(=O)c1coc(-c2cc[n+](CCS(=O)(=O)O)nc2)n1` [Compound A125], in assay [1], the “Control of weed species after post-emergence application, AMAPA (100=total damage to plant; 0=no damage to plant)” value was 30. Besides, the “Control of weed species after post-emergence application, EPHHL (100=total damage to plant; 0=no damage to plant)” value in [2] was 40. Also, the “Control of weed species after post-emergence application, IPOHE (100=total damage to plant; 0=no damage to plant)” value in [3] came to 10. Moreover, the “Control of weed species after post-emergence application, SETFA (100=total damage to plant; 0=no damage to plant)” value in assay [4] is 70. In assay [5], the “Control of weed species after post-emergence application, DIGSA (100=total damage to plant; 0=no damage to plant)” value was 60. In [6], the “Control of weed species after post-emergence application, ELEIN (100=total damage to plant; 0=no damage to plant)” value amounted to 40. Also, the “Control of weed species after post-emergence application, ECHCG (100=total damage to plant; 0=no damage to plant)” value in assay [7] stood at 60. Besides, in assay [8], the “Control of weed species after post-emergence application, LOLPE (100=total damage to plant; 0=no damage to plant)” value is 40. For the same molecule, in [9], the “Control of weed species after post-emergence application, CHEAL (100=total damage to plant; 0=no damage to plant)” value is 10.
Regarding `CCOC(=O)c1coc(-c2cc[n+](CCC(=O)O)nc2)n1` [Compound A126], the pest or weed control at 500 g/ha in [1] worked out at 90%; in assay [2], 70%; in [3], 30%; in assay [4] it was 70%; in assay [5] it was 90%; in assay [6], 90%. For the same molecule, the pest or weed control at 500 g/ha in assay [7] worked out at 60%; in assay [8], 60%; in assay [9], 70%.
